Values quoted from earlier work, collected in US20250381160A1, “Method and Apparatus for Providing Transdermal Delivery of a Carbidopa/Levodopa-Based Lotion for the Treatment of Parkinson's Disease” (Through The Skin LLC, priority 2024, published 2025).

Key:
Parkinson's Disease = conditions: carbidopa given with levodopa
[1] = not given; remark: listed apart in the source
[2] = with HA of 150,000-750,000 Daltons, 1-3% of the solution, versus formulations without hyaluronic acid

solubility in water | half-life of levodopa ([1]; carbidopa and levodopa administered together) | plasma half-life of levodopa ([1]; without carbidopa) | increase of the amount that penetrated the skin [2] [times] | Compound | reduction of the amount of levodopa required to produce a given response (Parkinson's Disease)
slightly soluble in water |  |  |  | CC(Cc1ccc(O)c(O)c1)(NN)C(=O)O (single isomer, unassigned; (-)) [Carbidopa, (-)-L-α-hydrazino-α-methyl-β-(3,4-dihydroxybenzene) propanoic acid monohydrate] | about 75%
slightly soluble in water | about 1.5 hours | about 50 minutes |  | NC(Cc1ccc(O)c(O)c1)C(=O)O (single isomer, unassigned; (-)) [Levodopa, (-)-L-α-amino-β-(3,4-dihydroxybenzene) propanoic acid] | 
 |  |  | 3 | O=C(O)Cc1ccccc1Nc1c(Cl)cccc1Cl [diclofenac sodium] | 
